Test results reported in article PMC11249646, “Small-Molecule Disruptors of the Interaction between Calcium- and Integrin-Binding Protein 1 and Integrin αIIbβ3 as Novel Antiplatelet Agents” (ACS Pharmacology & Translational Science, 2024).
Where two headings read alike, the source gives them in different places.

Molecular target: T1, CIB1 and αIIb interaction (CIB1-GST : F-αIIb peptide) (Homo sapiens, UniProt Q99828)
T1 construct: made in house; host or cells: BL-21 plus RIL cells (E. coli)
T1 sequence (Q99828 1-191): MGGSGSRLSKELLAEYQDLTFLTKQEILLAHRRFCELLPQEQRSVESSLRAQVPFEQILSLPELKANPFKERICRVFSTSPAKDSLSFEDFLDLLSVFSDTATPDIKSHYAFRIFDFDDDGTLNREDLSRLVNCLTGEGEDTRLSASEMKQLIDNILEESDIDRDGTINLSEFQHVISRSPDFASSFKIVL
Assay: FP assay, 1536-well qHTS format (primary and confirmatory screen)
Type: binding
Settings: for Curve Class: negative sign = inhibitory curve; for IC50: read-out: IC50

[1] = qHTS primary screen hits, Table S2, negative = inhibition
[2] = qHTS primary screen hits, Table S2, several classes where COUNT > 1
[3] = qHTS primary screen hits, Table S2
[4] = qHTS primary screen of LOPAC/NPACT libraries, negative = inhibition
[5] = qHTS primary screen of LOPAC/NPACT libraries

Row | SMILES | Efficacy (%) [1] | Curve Class [2] | IC50 [3] | Curve Class [3] | other results
1 | C=C1c2cccc(O)c2C(O)=C2C(=O)[C@]3(O)C(O)=C(C(N)=O)C(=O)[C@@H](N(C)C)[C@@H]3[C@@H](O)[C@H]12.Cl [NCGC00179358-04] | -53% | -2.4 | 56.2 µM | – | –
2 | CC(C)NC[C@@H](O)c1ccc(O)c(O)c1 [NCGC00179436-02] | – | – | – | – | Efficacy (%) [4]: -24%; Curve Class [5]: -2.2; IC50 [5]: 50.1 µM
3 | CCN(CC)C(=O)N[C@@H]1C=C2c3cccc4[nH]cc(c34)C[C@@H]2N(C)C1 [NCGC00179663-03] | -60% | -2.4 | 50.1 µM | – | –
4 | C=C1C(=O)O[C@@H]2[C@H]1[C@H](O)C[C@]1(C)[C@@H](O)CC=C(C)[C@@H]21 [NCGC00180848-02] | – | – | – | – | Efficacy (%) [4]: -29%; Curve Class [5]: -2.4; IC50 [5]: 20 µM
5 | Cl.Oc1ccc([C@H]2CNCc3c2ccc(O)c3O)cc1O [NCGC00183049-01] | -93% | – | 89.1 µM | -3 | –
6 | O=C(O)C(F)(F)F.OCc1cn(Cc2ccc(O)c3ncccc23)cn1 [NCGC00183377-01] | -33% | -2.2 | 44.7 µM | – | –
7 | O=C(O)C(F)(F)F.O=C1c2ccccc2NC(c2ccc(-c3cccc([N+](=O)[O-])c3)o2)N1O (centres unmarked) [NCGC00183384-01] | -23% | -2.4 | 56.2 µM | – | –
8 | O=C(O)C(F)(F)F.O=C1c2ccccc2NC(c2ccc(-c3ccc(C(F)(F)F)cc3)o2)N1O (centres unmarked) [NCGC00183389-01] | -24% | – | 56.2 µM | -2.4 | –
9 | C=CCNc1oc(-c2ccc(F)cc2)nc1C#N.O=C(O)C(F)(F)F [NCGC00183411-01] | -27% | -2.4 | 50.1 µM | – | –
10 | CN(NC(=O)CC(=O)NN(C)C(=S)c1ccccc1)C(=S)c1ccccc1 [NCGC00183656-09] | – | – | – | – | Efficacy (%) [4]: -33%; Curve Class [5]: -2.4; IC50 [5]: 35.5 µM
11 | CC(=O)NC(c1ccco1)c1cc(Br)c2cccnc2c1O.O=C(O)C(F)(F)F (centres unmarked) [NCGC00183684-06] | -40% | -2.2 | 50.1 µM | – | –
12 | CN(C)CCCNc1cc(O)c2ncccc2c1.O=C(O)C(F)(F)F [NCGC00183792-01] | -32% | – | 56.2 µM | -2.4 | –
13 | O=C(O)C(F)(F)F.Oc1cc(NCCN2CCOCC2)cc2cccnc12 [NCGC00183799-01] | -45% | -2.2 | 50.1 µM | – | –
14 | CN(C)CCCNC(=O)c1ccc(-c2cc(O)c3ncccc3c2)cc1 [NCGC00183808-07] | -38% | – | 30.2 µM | – | –
15 | CC(C)N1CCc2c(sc(NC(=O)Cc3ccccc3)c2-c2nc3ccccc3s2)C1.O=C(O)C(F)(F)F [NCGC00184841-01] | -104% | – | 28.2 µM | -2.1 | –
16 | O=C(O)C(F)(F)F.O=S(=O)(Nc1ccc(O)c2ncccc12)c1ccccc1F [NCGC00184887-02] | -48% | -3 | 79.4 µM | – | –
17 | C#CCCC(=O)Nc1sc2c(c1-c1nc3ccccc3s1)CCN(C(C)C)C2.O=C(O)C(F)(F)F [NCGC00185086-01] | -24% | – | 3.5 µM | -1.4 | –
18 | O=C(O)C(F)(F)F.c1nc(NCCc2c[nH]cn2)c2ccc(-c3ccc4c(c3)OCO4)cc2n1 [NCGC00185971-01] | -28% | -2.4 | 79.4 µM | – | –
19 | Cc1ccc(O)c(N=Nc2ccccc2)n1 [NCGC00185991-01] | – | – | – | – | Efficacy (%) [4]: -14%; Curve Class [5]: -1.2; IC50 [5]: 1.8 µM
20 | O=[N+]([O-])/C=C/c1ccc2c(c1)OCO2 [NCGC00186015-01] | – | – | – | – | Efficacy (%) [4]: -24%; Curve Class [5]: -2.2; IC50 [5]: 56.2 µM
21 | O=C1c2ccccc2C(=O)c2c(NCCc3ccc(O)cc3)ccc(NCCc3ccc(O)cc3)c21 [NCGC00186017-01] | -32% | – | 31.6 µM | -2.2 | –
22 | CCOC(=O)C1=C(C)NC(C)=C(C(=O)OCC)C1c1c(F)c(F)c(F)c(F)c1F [NCGC00186027-01] | – | – | – | – | Efficacy (%) [4]: -13%; Curve Class [5]: -1.2; IC50 [5]: 6.3 µM
23 | Cl.O=C(CCCCCN1CCN(c2ccccc2-c2ccccc2)CC1)NC1CCCc2ccccc21 (centres unmarked) [NCGC00186032-01] | – | – | – | – | Efficacy (%) [4]: -13%; Curve Class [5]: -1.2; IC50 [5]: 25.1 µM
24 | O=C(O)C(F)(F)F.O=C1CCCC2=C1C1(CCCCC1)N=C(Nc1nc3ccccc3o1)N2 [NCGC00186052-01] | -23% | -2.4 | 56.2 µM | – | –
25 | COc1cc(O)c2c(c1)/C=C/C[C@H](O)[C@H](O)C(=O)/C=C\C[C@H](C)OC2=O [NCGC00186421-07] | – | – | – | – | Efficacy (%) [4]: -26%; Curve Class [5]: -2.4; IC50 [5]: 25.1 µM
26 | Cc1ccc(NS(=O)(=O)c2ccc3[nH]c(=O)[nH]c3c2)cc1C.O=C(O)C(F)(F)F [NCGC00187759-01] | -68% | – | 4 µM | -2.4 | –
27 | CN(C)c1cccc(-c2cnc(N3CCC(c4ncc[nH]4)CC3)s2)c1.O=C(O)C(F)(F)F [NCGC00187899-01] | -34% | – | 79.4 µM | -2.4 | –
28 | CC(=O)NC(c1cccs1)c1cc(Br)c2cccnc2c1O (centres unmarked) [NCGC00188370-02] | – | – | – | – | Efficacy (%) (qHTS FP screen hits, Table S2, negative = inhibition): -40%; IC50 (qHTS FP screen hits, Table S2): 45.5 µM
29 | O=C(Nc1ccc2ccccc2c1)Nc1nnc(-c2ccccn2)s1.O=C(O)C(F)(F)F [NCGC00188528-01] | -30% | -2.4 | 56.2 µM | – | –

Further lines, with some results ahead:

Row | Efficacy (%) [1] | Curve Class [2] | IC50 [3] | Curve Class [3] | SMILES | other results
30 | -41% | -3 | 39.8 µM | – | Cl.Cl.O=C(O)c1cn(-c2ccc(F)cc2)c2cc(N3CCNCC3)c(F)cc2c1=O [NCGC00177995-02] | –
31 | -32% | -2.4 | 44.7 µM | – | O.O=C(O)[C@@H]1[C@H]2C[C@H]3c4[nH]c5ccccc5c4CCN3C[C@@H]2CC[C@@H]1O [NCGC00178432-05] | –
32 | -101% | – | 1.1 µM | -1.3 | C[n+]1c2cc(N)ccc2cc2ccc(N)cc21 [NCGC00178831-03] | –
33 | – | – | 44.7 µM | – | O=C(N/N=C/c1ccc([N+](=O)[O-])o1)c1ccc(O)cc1 [NCGC00179496-04] | –
34 | -140% | -1.1 | 2.8 µM | – | CCCC(=O)OC[C@@H](OC(=O)CCC)[C@@H](OC(=O)CCC)[C@H](Cn1c2nc(=O)[nH]c(=O)c-2nc2cc(C)c(C)cc21)OC(=O)CCC [NCGC00181300-01] | –
35 | -24% | -2.4 | 79.4 µM | – | CN(C)c1ccc(-c2ccnc(O)c2N)cc1 [NCGC00181386-01] | –
36 | -60% | -2.4 | 56.2 µM | – | CO/N=C(/C(=O)N[C@@H]1C(=O)N2C(C(=O)[O-])=C(C[n+]3ccn4ncccc43)CS[C@H]12)c1nsc(N)n1 [NCGC00181750-01] | –
37 | -30% | -2.4 | 44.7 µM | – | O=C(CN1C(=O)N/C(=C\c2cn(-c3cccc(C(=O)O)c3)cn2)C1=O)Nc1ccc(Cl)cc1 [NCGC00182401-01] | –
38 | -26% | – | 50.1 µM | -2.4 | CCC(=O)NC(c1cccs1)c1ccc2cccnc2c1O (centres unmarked) [NCGC00182903-03] | –
39 | – | – | 50.1 µM | -2.4 | c1ccc(C2Nc3cccc4cccc(c34)N2)cc1 [NCGC00182927-03] | Efficacy (%): -29%
40 | -29% | -2.4 | 50.1 µM | – | Oc1cccc(C2=C3C=CC(=N3)C(c3cccc(O)c3)=C3C=CC(=N3)C(c3cccc(O)c3)=C3CCC(=N3)C(c3cccc(O)c3)=C3C=CC2=N3)c1 [NCGC00183015-01] | –
41 | -171% | – | 89.1 µM | -3 | CO/N=C(\C(=O)N[C@@H]1C(=O)N2C(C(=O)O)=C(Cn3nnc(C)n3)CS[C@H]12)c1csc(N)n1 [NCGC00183016-01] | –
42 | -36% | -3 | 79.4 µM | – | Cc1c(C)c2c(c(C)c1OC(=O)CCC(=O)OCCO)CC[C@@](C)(CCC[C@H](C)CCC[C@H](C)CCCC(C)C)O2 [NCGC00183103-01] | –
43 | -54% | -2.2 | 50.1 µM | – | CC(=O)Nc1sc2c(c1-c1nc3ccccc3s1)CCN(C(C)C)C2 [NCGC00183664-03] | –
44 | -34% | -2.4 | 44.7 µM | – | CC(=O)NC(C)c1cc(Cl)c2cccnc2c1O (centres unmarked) [NCGC00183686-01] | –
45 | -28% | – | 56.2 µM | -2.4 | CCC(=O)NC(c1ccco1)c1cc(Br)c2cccnc2c1O (centres unmarked) [NCGC00183688-01] | –
46 | -24% | – | 79.4 µM | -2.4 | CC(=O)NC(c1ccco1)c1cc(F)c2cccnc2c1O (centres unmarked) [NCGC00183702-01] | –
47 | -39% | -2.2 | 50.1 µM | – | CC(=O)NC(c1ccco1)c1cc(Cl)c2ccc(N(C)C)nc2c1O (centres unmarked) [NCGC00183714-01] | –
48 | -100% | -3 | 39.8 µM | – | Nc1ccn(C2CO[C@H](CO)O2)c(=O)n1 (some centres unmarked) [NCGC00183848-01] | –
49 | -32% | -2.4 | 44.7 µM | – | Cl.O=c1c2ccccc2nc2sc(Nc3cccc(N4CCNCC4)c3)nn12 [NCGC00187809-01] | –
50 | -35% | – | 50.1 µM | -2.4 | CN(C)c1cccc(N2CCN(c3nn4c(=O)c5ccccc5nc4s3)CC2)c1.Cl [NCGC00187811-01] | –
